In the supplement of paper PMC11781733:
Where a name gives a salt, the structure may show the parent alone.

Legend:
Conditions in all cases: exposure time: 15 min to 3 h acute
Dugesia japonica [1] = assay: crawl-out incidence (% planarians); higher = higher incidence or increase relative to vehicle control
Dugesia japonica [2] = assay: speed in dark vs vehicle (% change vs vehicle); higher = higher incidence or increase relative to vehicle control
Outline: (§1)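 For each worm, crawling speed under dark or blue-light conditions was tracked automatically and expressed against the median of that plate's vehicle worms, and the reported value is the median percent change. The worms were intact, fasted Dugesia japonica held one per well in 200 μL in a 48-well plate, exposed in 0.5% DMSO or water vehicle and tested from 15 min to 3 h afterwards. Eight were used per concentration per plate across technical triplicate (n = 24), excluding any that crawled out.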

Dugesia japonica [3] = assay: C-shape incidence (% planarians (vehicle-normalised)); higher = higher incidence or increase relative to vehicle control
Outline: (§2)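 Single D. japonica planarians, fasted 5–7 days, sat in 200 μL per well of sealed 48-well plates and were screened 15 minutes–3 hours after exposure to at least 5 concentrations. Shapes were scored by hand and blind. The reported value is the incidence of a particular shape, or of any abnormal shape, ×100, set against in-plate vehicle controls with negatives taken as 0.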

Dugesia japonica [4] = assay: corkscrew incidence (% planarians (vehicle-normalised)); higher = higher incidence or increase relative to vehicle control
Outline: as §2

Dugesia japonica [5] = assay: stickiness incidence (% planarians (vehicle-normalised)); higher = higher incidence or increase relative to vehicle control
Outline: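 Stickiness was scored as a yes-or-no outcome in fasted Dugesia japonica planarians, and incidence was normalised to the vehicle incidence on the same plate. Each worm sat alone in a well of a sealed 48-well plate holding 200 μL of solution and was tested 15 min–3 h after exposure to half- or quarter-log concentration series, with 0.5% DMSO or water as vehicle. Technical triplicates were pooled (n = 24), negative values were set to 0, values were multiplied by 100, and worms that crawled out were excluded.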

Dugesia japonica [6] = assay: hyperkinesis incidence (% planarians (vehicle-normalised)); higher = higher incidence or increase relative to vehicle control
Outline: as §2

Dugesia japonica [7] = assay: speed first 30 s blue light vs vehicle (% change vs vehicle); higher = higher incidence or increase relative to vehicle control
Outline: as §1

Dugesia japonica [8] = assay: speed second 30 s blue light vs vehicle (% change vs vehicle); higher = higher incidence or increase relative to vehicle control
Outline: as §1

Dugesia japonica [9] = assay: pharynx extrusion incidence (% planarians (vehicle-normalised)); higher = higher incidence or increase relative to vehicle control
Outline: (§3)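 Pharynx extrusion was scored manually and blind as a body-shape category in intact, fasted Dugesia japonica, one per well of a 48-well plate in 200 μL. Worms were tested 15 min to 3 h after exposure in 0.5% DMSO or water vehicle. Eight worms per concentration per plate were run in technical triplicate (n = 24). The incidence rate ×100 was normalised to in-plate vehicle controls, negatives were set to 0, and worms that crawled out were excluded.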

Dugesia japonica [10] = assay: loss of phototaxis incidence (% planarians (vehicle-normalised)); higher = higher incidence or increase relative to vehicle control
Outline: as §3, with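 “Loss of phototaxis” for “Pharynx extrusion”, “scored” for “scored manually and blind”, “yes/no endpoint” for “body-shape category”, “vehicle, using automated object tracking.” for “vehicle.”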

Dugesia japonica [11] = assay: total locomotor bursts minus vehicle (bursts difference vs vehicle); higher = higher incidence or increase relative to vehicle control
Outline: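 Planarians of the species Dugesia japonica, fasted beforehand, received half- or quarter-log concentration series in 0.5% DMSO or water, one animal per well of a sealed 48-well plate holding 200 μL solution. They were tested 15 min–3 h after exposure in technical triplicates totalling n = 24. Each animal's count of total locomotor bursts, an unstimulated behaviour obtained by image-based object tracking, had the plate vehicle-control median subtracted without ×100 scaling. The figure given is the median normalised response, with crawled-out worms excluded.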

Dugesia japonica [12] = assay: noxious heat displacement strength vs vehicle (% change vs vehicle); higher = higher incidence or increase relative to vehicle control
Outline: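 Values are the median percent change in displacement strength under noxious heat, scored by automated object tracking in the scrunching assay with intact, fasted Dugesia japonica. Each worm was placed alone in a well of a 48-well plate in 200 μL and tested 15 min to 3 h after exposure in 0.5% DMSO or water vehicle. Eight worms per concentration per plate were run in technical triplicate (n = 24), with each worm normalised to the plate's vehicle median and worms that crawled out excluded.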

Dugesia japonica [13] = assay: contracted body shape incidence (% planarians (vehicle-normalised)); higher = higher incidence or increase relative to vehicle control
Outline: as §2

Dugesia japonica [14] = assay: anxiety (time in outer well region) vs vehicle (% change vs vehicle); higher = higher incidence or increase relative to vehicle control
Outline: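 The value is the median normalized time that planarians spent in the outer portion of the well. D. japonica worms, fasted 5–7 days, were held singly in 200 μL per well of sealed 48-well plates at at least 5 concentrations (n = 24 per concentration) and screened within 15 minutes–3 hours. Each worm's response was divided by, or reduced by, the plate vehicle median and then multiplied by 100, and worms that crawled out were left out.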

Dugesia japonica [15] = assay: any abnormal body shape incidence (% planarians (vehicle-normalised)); higher = higher incidence or increase relative to vehicle control
Outline: as §2

Dugesia japonica [16] = assay: resting fraction in dark vs vehicle (difference in fraction x100 vs vehicle); higher = higher incidence or increase relative to vehicle control
Outline: (§4)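 The resting fraction, in the dark or under blue light, comes from automated tracking of intact, fasted Dugesia japonica. Worms sat singly in wells of a 48-well plate in 200 μL and were tested 15 min to 3 h after exposure in 0.5% DMSO or water vehicle. The plate's vehicle median was subtracted from each worm and the difference multiplied by 100, then the median was reported after excluding worms that crawled out.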

Dugesia japonica [17] = assay: loss of heat-induced scrunching incidence (% planarians (vehicle-normalised)); higher = higher incidence or increase relative to vehicle control
Outline: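 Planarians of the species D. japonica, fasted for 5–7 days, were placed singly in wells of sealed 48-well plates in 200 μL and exposed to at least 5 concentrations, 24 worms per concentration in technical triplicates. Scrunching in response to a noxious heat stimulus was tested within 15 minutes–3 hours, and any worm that crawled out was excluded. The reported figure is the incidence of non-scrunching worms, normalised to vehicle controls on the same plate. This incidence is given ×100, with negatives set to 0.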

Dugesia japonica [18] = assay: resting fraction in blue light vs vehicle (difference in fraction x100 vs vehicle); higher = higher incidence or increase relative to vehicle control
Outline: as §4

Compound	crawl-out incidence (Dugesia japonica [1])	speed in dark (Dugesia japonica [2])	C-shape incidence (Dugesia japonica [3])	corkscrew incidence (Dugesia japonica [4])	stickiness incidence (Dugesia japonica [5])	hyperkinesis incidence (Dugesia japonica [6])	speed first 30 s blue light (Dugesia japonica [7])	speed second 30 s blue light (Dugesia japonica [8])	pharynx extrusion incidence (Dugesia japonica [9])	loss of phototaxis incidence (Dugesia japonica [10])	total locomotor bursts minus vehicle (Dugesia japonica [11])	noxious heat displacement strength (Dugesia japonica [12])	contracted body shape incidence (Dugesia japonica [13])	anxiety (Dugesia japonica [14])	any abnormal body shape incidence (Dugesia japonica [15])	resting fraction in dark (Dugesia japonica [16])	loss of heat-induced scrunching incidence (Dugesia japonica [17])	resting fraction in blue light (Dugesia japonica [18])
CN[C@H]1CC[C@@H](c2ccc(Cl)c(Cl)c2)c2ccccc21 [sertraline hydrochloride] (31.6 µM)	4.17	-31.9	0	0	4.35	4.35	-36	-42.3	0	≤ 0	6.5	3.64	0	1.57	4.35	-19.3	47.8	4.64
CN[C@H]1CC[C@@H](c2ccc(Cl)c(Cl)c2)c2ccccc21 [sertraline hydrochloride] (100 µM)	4.17	7.78	0	0	≤ 0	91.3	-33.7	-33.9	0	4.35	-5.25	-27.1	0	17.1	91.3	4.98	21.7	3.91
[Cl-].[Na+] [sodium chloride] (3470 µM)	4.17	-7.38	0	0	≤ 0	0	18.8	-2.5	0	≤ 0	0.5	-5.24	0	-4.03	0	2.94	12.5	-8.67
